Source: patent US8192962B2, “Processes for detecting toxic substances” (Daikin Industries, Ltd., priority 2001, dated 2012)

System: Stress protein genes
Assay: DNA chip mRNA expression in yeast, stress protein genes (Table 6)
Assay type: cell-based, Saccharomyces cerevisiae S288C
Summary of the method: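 First, S288C yeast grown in YPD at 25° C. are dosed in log phase with one toxicant (growth-inhibiting, not lethal) for 2 h. Next, total RNA is extracted and poly(A) mRNA isolated and reverse-transcribed with Cy3/Cy5-dUTP. Finally, whole-genome chip fluorescence is read relative to unexposed cells.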

CN(C)C(=S)SSC(=S)N(C)C [(10), Tetramethylthiuram disulfide]
The level of expressed mRNA in the presence of chemical substance/The level of expressed mRNA in the absence of chemical substance (yeast gene YAL005C): 1.8 | The level of expressed mRNA in the presence of chemical substance/The level of expressed mRNA in the absence of chemical substance (yeast gene YAL015C): 2.7 | The level of expressed mRNA in the presence of chemical substance/The level of expressed mRNA in the absence of chemical substance (yeast gene YBL075C): 6.7 | The level of expressed mRNA in the presence of chemical substance/The level of expressed mRNA in the absence of chemical substance (yeast gene YBL093C): 1.1 | The level of expressed mRNA in the presence of chemical substance/The level of expressed mRNA in the absence of chemical substance (yeast gene YBR044C): 1.2 | The level of expressed mRNA in the presence of chemical substance/The level of expressed mRNA in the absence of chemical substance (yeast gene YBR054W): 1.2 | The level of expressed mRNA in the presence of chemical substance/The level of expressed mRNA in the absence of chemical substance (yeast gene YBR067C): 1.0 | The level of expressed mRNA in the presence of chemical substance/The level of expressed mRNA in the absence of chemical substance (yeast gene YBR072W): 43.4 | The level of expressed mRNA in the presence of chemical substance/The level of expressed mRNA in the absence of chemical substance (yeast gene YBR169C): 4.3 | The level of expressed mRNA in the presence of chemical substance/The level of expressed mRNA in the absence of chemical substance (yeast gene YCL035C): 2.3 | The level of expressed mRNA in the presence of chemical substance/The level of expressed mRNA in the absence of chemical substance (yeast gene YCR021C): 1.0 | The level of expressed mRNA in the presence of chemical substance/The level of expressed mRNA in the absence of chemical substance (yeast gene YCR060W): 1.1 | The level of expressed mRNA in the presence of chemical substance/The level of expressed mRNA in the absence of chemical substance (yeast gene YCR083W): 1.8 | The level of expressed mRNA in the presence of chemical substance/The level of expressed mRNA in the absence of chemical substance (yeast gene YDL022W): 1.8 | The level of expressed mRNA in the presence of chemical substance/The level of expressed mRNA in the absence of chemical substance (yeast gene YDL025C): 4.5 | The level of expressed mRNA in the presence of chemical substance/The level of expressed mRNA in the absence of chemical substance (yeast gene YDR033W): 1.0 | The level of expressed mRNA in the presence of chemical substance/The level of expressed mRNA in the absence of chemical substance (yeast gene YDR077W): 0.7 | The level of expressed mRNA in the presence of chemical substance/The level of expressed mRNA in the absence of chemical substance (yeast gene YDR098C): 1.5 | The level of expressed mRNA in the presence of chemical substance/The level of expressed mRNA in the absence of chemical substance (yeast gene YDR155C): 1.3 | The level of expressed mRNA in the presence of chemical substance/The level of expressed mRNA in the absence of chemical substance (yeast gene YDR258C): 13.3 | The level of expressed mRNA in the presence of chemical substance/The level of expressed mRNA in the absence of chemical substance (yeast gene YDR293C): 1.2 | The level of expressed mRNA in the presence of chemical substance/The level of expressed mRNA in the absence of chemical substance (yeast gene YDR436W): 1.1 | The level of expressed mRNA in the presence of chemical substance/The level of expressed mRNA in the absence of chemical substance (yeast gene YDR513W): 3.1 | The level of expressed mRNA in the presence of chemical substance/The level of expressed mRNA in the absence of chemical substance (yeast gene YDR519W): 1.2 | The level of expressed mRNA in the presence of chemical substance/The level of expressed mRNA in the absence of chemical substance (yeast gene YEL030W): 2.5 | The level of expressed mRNA in the presence of chemical substance/The level of expressed mRNA in the absence of chemical substance (yeast gene YEL039C): 1.2 | The level of expressed mRNA in the presence of chemical substance/The level of expressed mRNA in the absence of chemical substance (yeast gene YER042W): 2.1 | The level of expressed mRNA in the presence of chemical substance/The level of expressed mRNA in the absence of chemical substance (yeast gene YER057C): 1.4 | The level of expressed mRNA in the presence of chemical substance/The level of expressed mRNA in the absence of chemical substance (yeast gene YER103W): 9.0 | The level of expressed mRNA in the presence of chemical substance/The level of expressed mRNA in the absence of chemical substance (yeast gene YER125W): 1.2 | The level of expressed mRNA in the presence of chemical substance/The level of expressed mRNA in the absence of chemical substance (yeast gene YFL014W): 5.8 | The level of expressed mRNA in the presence of chemical substance/The level of expressed mRNA in the absence of chemical substance (yeast gene YFL016C): 2.9 | The level of expressed mRNA in the presence of chemical substance/The level of expressed mRNA in the absence of chemical substance (yeast gene YFL020C): 1.4 | The level of expressed mRNA in the presence of chemical substance/The level of expressed mRNA in the absence of chemical substance (yeast gene YFR052W): 3.0 | The level of expressed mRNA in the presence of chemical substance/The level of expressed mRNA in the absence of chemical substance (yeast gene YGL073W): 2.4 | The level of expressed mRNA in the presence of chemical substance/The level of expressed mRNA in the absence of chemical substance (yeast gene YGL115W): 1.2 | The level of expressed mRNA in the presence of chemical substance/The level of expressed mRNA in the absence of chemical substance (yeast gene YGL181W): 2.3 | The level of expressed mRNA in the presence of chemical substance/The level of expressed mRNA in the absence of chemical substance (yeast gene YGR088W): 3.2 | The level of expressed mRNA in the presence of chemical substance/The level of expressed mRNA in the absence of chemical substance (yeast gene YHL028W): 0.4 | The level of expressed mRNA in the presence of chemical substance/The level of expressed mRNA in the absence of chemical substance (yeast gene YHL046C): 2.1 | The level of expressed mRNA in the presence of chemical substance/The level of expressed mRNA in the absence of chemical substance (yeast gene YHR030C): 2.5 | The level of expressed mRNA in the presence of chemical substance/The level of expressed mRNA in the absence of chemical substance (yeast gene YHR057C): 1.2 | The level of expressed mRNA in the presence of chemical substance/The level of expressed mRNA in the absence of chemical substance (yeast gene YHR104W): 2.3 | The level of expressed mRNA in the presence of chemical substance/The level of expressed mRNA in the absence of chemical substance (yeast gene YIL011W): 0.5 | The level of expressed mRNA in the presence of chemical substance/The level of expressed mRNA in the absence of chemical substance (yeast gene YIL033C): 1.3 | The level of expressed mRNA in the presence of chemical substance/The level of expressed mRNA in the absence of chemical substance (yeast gene YIR037W): 3.8 | The level of expressed mRNA in the presence of chemical substance/The level of expressed mRNA in the absence of chemical substance (yeast gene YIR038C): 4.5 | The level of expressed mRNA in the presence of chemical substance/The level of expressed mRNA in the absence of chemical substance (yeast gene YJL128C): 1.7 | The level of expressed mRNA in the presence of chemical substance/The level of expressed mRNA in the absence of chemical substance (yeast gene YJL158C): 0.5 | The level of expressed mRNA in the presence of chemical substance/The level of expressed mRNA in the absence of chemical substance (yeast gene YJL159W): 1.2 | The level of expressed mRNA in the presence of chemical substance/The level of expressed mRNA in the absence of chemical substance (yeast gene YJL165C): 1.0 | The level of expressed mRNA in the presence of chemical substance/The level of expressed mRNA in the absence of chemical substance (yeast gene YJR045C): 3.0 | The level of expressed mRNA in the presence of chemical substance/The level of expressed mRNA in the absence of chemical substance (yeast gene YJR090C): 1.2 | The level of expressed mRNA in the presence of chemical substance/The level of expressed mRNA in the absence of chemical substance (yeast gene YKL161C): 1.7 | The level of expressed mRNA in the presence of chemical substance/The level of expressed mRNA in the absence of chemical substance (yeast gene YKL163W): 1.6 | The level of expressed mRNA in the presence of chemical substance/The level of expressed mRNA in the absence of chemical substance (yeast gene YKL164C): 0.7 | The level of expressed mRNA in the presence of chemical substance/The level of expressed mRNA in the absence of chemical substance (yeast gene YKL210W): 2.9 | The level of expressed mRNA in the presence of chemical substance/The level of expressed mRNA in the absence of chemical substance (yeast gene YKR053C): 1.8 | The level of expressed mRNA in the presence of chemical substance/The level of expressed mRNA in the absence of chemical substance (yeast gene YLL024C): 2.4 | The level of expressed mRNA in the presence of chemical substance/The level of expressed mRNA in the absence of chemical substance (yeast gene YLL026W): 6.6 | The level of expressed mRNA in the presence of chemical substance/The level of expressed mRNA in the absence of chemical substance (yeast gene YLL039C): 1.5 | The level of expressed mRNA in the presence of chemical substance/The level of expressed mRNA in the absence of chemical substance (yeast gene YLL060C): 23.2 | The level of expressed mRNA in the presence of chemical substance/The level of expressed mRNA in the absence of chemical substance (yeast gene YLR006C): 1.1 | The level of expressed mRNA in the presence of chemical substance/The level of expressed mRNA in the absence of chemical substance (yeast gene YLR109W): 2.7 | The level of expressed mRNA in the presence of chemical substance/The level of expressed mRNA in the absence of chemical substance (yeast gene YLR259C): 2.6 | The level of expressed mRNA in the presence of chemical substance/The level of expressed mRNA in the absence of chemical substance (yeast gene YML007W): 2.5 | The level of expressed mRNA in the presence of chemical substance/The level of expressed mRNA in the absence of chemical substance (yeast gene YML070W): 3.9 | The level of expressed mRNA in the presence of chemical substance/The level of expressed mRNA in the absence of chemical substance (yeast gene YMR021C): 1.3 | The level of expressed mRNA in the presence of chemical substance/The level of expressed mRNA in the absence of chemical substance (yeast gene YMR173W): 8.2 | The level of expressed mRNA in the presence of chemical substance/The level of expressed mRNA in the absence of chemical substance (yeast gene YMR186W): 1.3 | The level of expressed mRNA in the presence of chemical substance/The level of expressed mRNA in the absence of chemical substance (yeast gene YNL064C): 1.8 | The level of expressed mRNA in the presence of chemical substance/The level of expressed mRNA in the absence of chemical substance (yeast gene YNL160W): 2.7 | The level of expressed mRNA in the presence of chemical substance/The level of expressed mRNA in the absence of chemical substance (yeast gene YNL241C): 7.4 | The level of expressed mRNA in the presence of chemical substance/The level of expressed mRNA in the absence of chemical substance (yeast gene YNR076W): 2.5 | The level of expressed mRNA in the presence of chemical substance/The level of expressed mRNA in the absence of chemical substance (yeast gene YOL064C): 2.7 | The level of expressed mRNA in the presence of chemical substance/The level of expressed mRNA in the absence of chemical substance (yeast gene YOL161C): 2.0 | The level of expressed mRNA in the presence of chemical substance/The level of expressed mRNA in the absence of chemical substance (yeast gene YOR008C): 1.0 | The level of expressed mRNA in the presence of chemical substance/The level of expressed mRNA in the absence of chemical substance (yeast gene YOR009W): 0.5 | The level of expressed mRNA in the presence of chemical substance/The level of expressed mRNA in the absence of chemical substance (yeast gene YOR010C): 0.7 | The level of expressed mRNA in the presence of chemical substance/The level of expressed mRNA in the absence of chemical substance (yeast gene YOR027W): 4.0 | The level of expressed mRNA in the presence of chemical substance/The level of expressed mRNA in the absence of chemical substance (yeast gene YOR208W): 2.0 | The level of expressed mRNA in the presence of chemical substance/The level of expressed mRNA in the absence of chemical substance (yeast gene YPL059W): 1.3 | The level of expressed mRNA in the presence of chemical substance/The level of expressed mRNA in the absence of chemical substance (yeast gene YPL106C): 1.8 | The level of expressed mRNA in the presence of chemical substance/The level of expressed mRNA in the absence of chemical substance (yeast gene YPL140C): 0.9 | The level of expressed mRNA in the presence of chemical substance/The level of expressed mRNA in the absence of chemical substance (yeast gene YPL194W): 3.1 | The level of expressed mRNA in the presence of chemical substance/The level of expressed mRNA in the absence of chemical substance (yeast gene YPL223C): 16.5 | The level of expressed mRNA in the presence of chemical substance/The level of expressed mRNA in the absence of chemical substance (yeast gene YPL240C): 2.6 | The level of expressed mRNA in the presence of chemical substance/The level of expressed mRNA in the absence of chemical substance (yeast gene YPR005C): 2.0 | The level of expressed mRNA in the presence of chemical substance/The level of expressed mRNA in the absence of chemical substance (yeast gene YPR026W): 3.1
